According to patent publication EP4818159A1 (Kissei Pharmaceutical Co., Ltd., priority 2023, dated 2025):

molecular target: T1, human TSHR (Homo sapiens, UniProt P16473); assay: Antagonist activity using TSH-induced cAMP production in human TSHR-stably expressing CHO cells; assay type: cell-based; details: human TSH final concentration of 50 ng/mL, cAMP production rate
T1 construct: expressed in transfected cells
Experimental: Measurement of antagonist activity using TSH-induced cAMP production in human TSHR-stably expressing CHO cells as an indicator
The gene sequence (reference number NM_000369.2) of human TSHR was inserted into the multiple cloning site of pcDNA3.1(+). The prepared plasmid vector was introduced into CHO cells using a lipofection method to establish human TSHR-stably expressing CHO cells. The obtained cells were seeded at 5 x 10^4 cells/well in a 96-well poly-D-lysine-coated plate, and cultured in an F12 culture medium containing 10% FBS, 400 µg/mL of G418, 50 U/mL of penicillin and 50 µg/mL of streptomycin under conditions of 37°C and 5% CO2 for 1 day. The culture medium was removed, and the cells were then washed twice with 100 µL of an assay buffer (Hanks' Balanced Salt Solution containing 20 mM HEPES and 1 mM IBMX) per well. 30 µL of an assay buffer containing a test compound was added to the well, and incubation was performed at room temperature for 15 minutes. Then, 30 µL of an assay buffer containing human TSH (a final concentration of 50 ng/mL, R&D Systems, Inc.) was added, and incubation was performed at 37°C for 1 hour. The supernatant was removed, a Lysis and Detection Buffer 2 (Cisbio) was added, and incubation was performed at room temperature for 1 hour to prepare a cell lysate. According to the instruction manual of a cAMP Gs HiRange kit (Cisbio), the cell lysate, d2-labeled cAMP and anti-cAMP Europium Cryptate labeled antibodies (Cisbio) were reacted in a 384-well white microplate. Then, a fluorescence intensity ratio (measurement wavelength 665 nm/620 nm) was measured using a multi-plate reader (PHERAstar FSX, BMG LABTECH Japan). The fluorescence intensity ratio of each sample was converted to a cAMP content using a standard curve. The cAMP content was converted as a percentage of the control value to calculate a cAMP production rate. The cAMP production rate was plotted against the test compound concentration using Prism (Graph Pad Software Inc.) to calculate the IC50 value. In the tables, IC50<3.0 µM was indicated as A, and 3.0 µM≤IC50<30 µM was indicated as B. If activity was observed but the IC50 value could not be calculated, it was indicated as C.

T1 sequence (P16473 21-764): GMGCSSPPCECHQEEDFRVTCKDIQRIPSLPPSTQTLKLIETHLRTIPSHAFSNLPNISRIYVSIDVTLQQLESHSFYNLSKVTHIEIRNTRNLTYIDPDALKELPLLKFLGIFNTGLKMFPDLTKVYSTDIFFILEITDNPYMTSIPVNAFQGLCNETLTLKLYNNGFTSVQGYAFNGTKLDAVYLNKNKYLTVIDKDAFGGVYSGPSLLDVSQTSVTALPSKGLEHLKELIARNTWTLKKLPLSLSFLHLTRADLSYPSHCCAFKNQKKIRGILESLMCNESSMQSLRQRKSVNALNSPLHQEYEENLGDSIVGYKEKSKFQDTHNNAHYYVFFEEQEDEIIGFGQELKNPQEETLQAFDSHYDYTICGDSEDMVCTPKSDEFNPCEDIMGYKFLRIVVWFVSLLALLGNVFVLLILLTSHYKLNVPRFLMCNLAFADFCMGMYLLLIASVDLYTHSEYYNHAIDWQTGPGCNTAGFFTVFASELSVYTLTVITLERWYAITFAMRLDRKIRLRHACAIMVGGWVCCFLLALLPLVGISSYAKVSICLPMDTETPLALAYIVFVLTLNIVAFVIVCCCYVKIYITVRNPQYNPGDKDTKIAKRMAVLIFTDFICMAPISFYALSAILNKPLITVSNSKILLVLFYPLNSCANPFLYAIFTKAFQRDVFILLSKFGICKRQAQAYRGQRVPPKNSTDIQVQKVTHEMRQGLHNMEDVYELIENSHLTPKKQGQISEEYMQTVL

Row | IC50 | Structure (SMILES)
1 | 3 to 30 µM | Cc1ccc2c(c1Oc1cc(F)ccc1Cl)N(C)C(=O)C1(NC(N)=O)CC21 (centres unmarked) [Example 32, 1-(4-(2-chloro-5-fluorophenoxy)-3,5-dimethyl-2-oxo-1,2,3,7b-tetrahydro-1aH-cyclopropa[c]quinoline-1a-yl)urea]
2 | < 3 µM | CN1C(=O)[C@H](NC(N)=O)Cc2sc(C#N)c(Cc3cc(F)ccc3Cl)c21 [Example 40, (R)-1-(3-(2-chloro-5-fluorobenzyl)-2-cyano-4-methyl-5-oxo-4,5,6,7-tetrahydrothieno[3,2-b]pyridin-6-yl)urea]
3 | < 3 µM | CN1C(=O)C(NC(N)=O)Cc2cc(NC(=O)OC3(C)CC3)cc(Oc3cccc(C(F)(F)F)n3)c21 (centres unmarked) [Example 8, 1-methylcyclopropyl (1-methyl-2-oxo-8-((6-(trifluoromethyl)pyridin-2-yl)oxy)-3-ureido-1,2,3,4-tetrahydroquinoline-6-yl)carbamate]
4 | 3 to 30 µM | CN1C(=O)[C@H](NC2=NC(=O)CN2)Cc2cccc(Oc3cc(F)ccc3Cl)c21 [Example 33, (R)-8-(2-chloro-5-fluorophenoxy)-1-methyl-3-((4-oxo-4,5-dihydro-1H-imidazole-2-yl)amino)-3,4-dihydroquinoline-2(1H)-one]
5 | < 3 µM | CN1C(=O)C(OC(N)=O)Cc2cccc(Oc3cc(F)ccc3Cl)c21 (centres unmarked) [Example 26, 8-(2-chloro-5-fluorophenoxy)-1-methyl-2-oxo-1,2,3,4-tetrahydroquinoline-3-yl carbamate]
6 | < 3 µM | Cc1ccc2c(c1Oc1cc(F)ccc1Cl)N(C)C(=O)[C@H](NC(=O)N1CCOCC1)C2 [Example 19, (R)-N-(8-(2-chloro-5-fluorophenoxy)-1,7-dimethyl-2-oxo-1,2,3,4-tetrahydroquinoline-3-yl)m orpholine-4-carboxamide]
7 | 3 to 30 µM | CC1(c2ccccc2)CCN2C(=O)[C@H](NC(N)=O)Cc3cccc1c32 (stereo partly drawn) [Example 16, 1-((2R)-7-methyl-3-oxo-7-phenyl-2,3,6,7-tetrahydro-1H,5H-pyrido[3,2,1-ij]quinoline-2-yl)ur ea]
8 | < 3 µM | CN1C(=O)[C@H](NC(N)=O)Cc2cccc(C(=O)c3ccccc3Cl)c21 [Example 11, (R)-1-(8-(2-chlorobenzoyl)-1-methyl-2-oxo-1,2,3,4-tetrahydroquinoline-3-yl)urea]
9 | > 30 µM | CN1C(=O)[C@H](NC(N)=O)Cc2cccc(OCc3ccccc3)c21 [Example 18, (R)-1-(8-(benzyloxy)-1-methyl-2-oxo-1,2,3,4-tetrahydroquinoline-3-yl)urea]
10 | < 3 µM | CN1C(=O)[C@H](NC(N)=O)Cc2csc(Cc3cc(F)ccc3Cl)c21 [Example 36, (R)-1-(7-(2-chloro-5-fluorobenzyl)-1-methyl-2-oxo-1,2,3,4-tetrahydrothieno[3,4-b]pyridine-3-yl)urea]
11 | < 3 µM | C[C@H](OC(=O)Nc1cc2c(c(Oc3cccc(C(F)(F)F)n3)c1)N(C)C(=O)C(NC(N)=O)C2)C(F)(F)F (stereo partly drawn) [Example 6, (S)-1,1,1-trifluoropropan-2-yl (1-methyl-2-oxo-8-((6-trifluoromethylpyridin-2-yl)oxy)-3-ureido-1,2,3,4-tetrahydroquinoline-6-yl)carbamate]
12 | > 30 µM | CN1C(=O)[C@H](N2CCOC2=O)Cc2cccc(Oc3cc(F)ccc3Cl)c21 [Example 25, (R)-3-(8-(2-chloro-5-fluorophenoxy)-1-methyl-2-oxo-1,2,3,4-tetrahydroquinoline-3-yl)oxazo lidine-2-one]
13 | > 30 µM | CC(c1ccccc1)c1cccc2c1N(C)C(=O)N(CC(N)=O)C2 (centres unmarked) [Example 30, 2-(1-methyl-2-oxo-8-(1-phenylethyl)-1,4-dihydroquinazoline-3(2H)-yl)acetamide]

More lines, now with the values behind:

Row | Structure (SMILES) | IC50
14 | CN1C(=S)C(NC(N)=O)Cc2cccc(Oc3cc(F)ccc3Cl)c21 (centres unmarked) [Example 27, 1-(8-(2-chloro-5-fluorophenoxy)-1-methyl-2-thioxo-1,2,3,4-tetrahydroquinoline-3-yl)urea] | < 3 µM
15 | Cc1ccc2c(c1Oc1cc(F)ccc1Cl)N(C)C(=O)[C@H](NC(=O)c1ccccc1)C2 [Example 20, (R)-N-(8-(2-chloro-5-fluorophenoxy)-1,7-dimethyl-2-oxo-1,2,3,4-tetrahydroquinoline-3-yl)b enzamide] | < 3 µM
16 | CN1C(=O)[C@H](N2CCNC2=O)Cc2cccc(Oc3cc(F)ccc3Cl)c21 [Example 24, (R)-8-(2-chloro-5-fluorophenoxy)-1-methyl-3-(2-oxoimidazolidine-1-yl)-3,4-dihydroquinoline-2(1H)-one] | 3 to 30 µM
17 | COC(=O)N[C@@H]1Cc2cccc(Oc3cc(F)ccc3Cl)c2N(C)C1=O [Example 22, methyl (R)-(8-(2-chloro-5-fluorophenoxy)-1-methyl-2-oxo-1,2,3,4-tetrahydroquinoline-3-yl)carbamate] | < 3 µM
18 | CN1C(=O)C(NC(N)=O)Cc2cc(NC(=O)OC3CCCC3)cc(Oc3ccccc3C#N)c21 (centres unmarked) [Example 4, cyclopentyl (8-(2-cyanophenoxy)-1-methyl-2-oxo-3-ureido-1,2,3,4-tetrahydroquinoline-6-yl)carbamate] | < 3 µM
19 | Cc1sc2c(c1Cc1cc(F)ccc1Cl)N(C)C(=O)[C@H](NC(N)=O)C2 [Example 38, (R)-1-(3-(2-chloro-5-fluorobenzyl)-2,4-dimethyl-5-oxo-4,5,6,7-tetrahydrothieno[3,2-b]pyridin-6-yl)urea] | < 3 µM
20 | CN1C(=O)[C@H](Nc2ncc[nH]2)Cc2cccc(Oc3cc(F)ccc3Cl)c21 [Example 34, (R)-3-((1H-imidazole-2-yl)amino)-8-(2-chloro-5-fluorophenoxy)-1-methyl-3,4-dihydroquinoline-2(1H)-one] | 3 to 30 µM
21 | CN1C(=O)[C@H](NC(N)=O)Cc2scc(Cc3cc(F)ccc3Cl)c21 [Example 37, (R)-1-(3-(2-chloro-5-fluorobenzyl)-4-methyl-5-oxo-4,5,6,7-tetrahydrothieno[3,2-b]pyridine-6-yl)urea] | < 3 µM
22 | CN1C(=O)C(NC(N)=O)Cc2cc(NC(=O)OCC3CC3)cc(Oc3cccc(C(F)(F)F)n3)c21 (centres unmarked) [Example 7, cyclopropylmethyl (1-methyl-2-oxo-8-((6-(trifluoromethyl)pyridin-2-yl)oxy)-3-ureido-1,2,3,4-tetrahydroquinoline-6-yl)carbamate] | < 3 µM
23 | CN1C(=O)C(CNC(N)=O)Cc2cccc(Oc3ccccc3)c21 (centres unmarked) [Example 10, 1-((1-methyl-2-oxo-8-phenoxy-1,2,3,4-tetrahydroquinoline-3-yl)methyl)urea] | 3 to 30 µM
24 | CN1C(=O)C(NC(N)=O)Cc2scc(C(=O)c3cc(F)ccc3Cl)c21 (centres unmarked) [Example 42, 1-(3-(2-chloro-5-fluorobenzoyl)-4-methyl-5-oxo-4,5,6,7-tetrahydrothieno[3,2-b]pyridin-6-yl) urea] | < 3 µM
25 | CC(C)OC(=O)Nc1cc2c(c(Oc3cccc(C(F)(F)F)n3)c1)N(C)C(=O)C(NC(N)=O)C2 (centres unmarked) [Example 9, isopropyl (1-methyl-2-oxo-8-((6-trifluoromethylpyridin-2-yl)oxy)-3-ureido-1,2,3,4-tetrahydroquinoline-6-yl)carbamate] | < 3 µM
26 | Cc1ccc2cc(NC(N)=O)c(=O)n(C)c2c1Oc1cc(F)ccc1Cl [Example 31, 1-(8-(2-chloro-5-fluorophenoxy)-1,7-dimethyl-2-oxo-1,2-dihydroquinoline-3-yl)urea] | > 30 µM
27 | CN1C(=O)C(CC(N)=O)Cc2cc(NC(=O)OC3CCCC3)cc(Oc3ccccc3C#N)c21 (centres unmarked) [Example 3, cyclopentyl (3-(2-amino-2-oxoethyl)-8-(2-cyanophenoxy)-1-methyl-2-oxo-1,2,3,4-tetrahydroquinoline-6-yl)carbamate] | < 3 µM
28 | CN1C(=O)[C@H](NC(N)=O)Cc2cccc(C(O)c3ccccc3Cl)c21 (stereo partly drawn) [Example 12, 1-((3R)-8-((2-chlorophenyl)(hydroxy)methyl)-1-methyl-2-oxo-1,2,3,4-tetrahydroquinoline-3-yl)urea] | > 30 µM
29 | CN1C(=O)C(CC(N)=O)Cc2cc(NC(=O)OC3CCCC3)cc(Oc3ccccc3)c21 (centres unmarked) [Example 2, cyclopentyl (3-(2-amino-2-oxoethyl)-1-methyl-2-oxo-8-phenoxy-1,2,3,4-tetrahydroquinoline-6-yl)carbam ate] | < 3 µM
30 | C=C(c1ccccc1Cl)c1cccc2c1N(C)C(=O)[C@H](NC(N)=O)C2 [Example 13, (R)-1-(8-(1-(2-chlorophenyl)vinyl)-1-methyl-2-oxo-1,2,3,4-tetrahydroquinoline-3-yl)urea] | < 3 µM
31 | Cc1ccc2c(c1Oc1cc(F)ccc1Cl)N(C)C(=O)[C@H](NC(N)=O)[C@H]2O (relative stereo) [Example 21, 1-((3R^*,4S^*)-8-(2-chloro-5-fluorophenoxy)-4-hydroxy-1,7-dimethyl-2-oxo-1,2,3,4-tetrahydroquinoline-3-yl)urea] | < 3 µM
32 | CN1C(=O)[C@H](NS(N)(=O)=O)Cc2cccc(Oc3cc(F)ccc3Cl)c21 [Example 23] | < 3 µM
